Test results reported in patent publication US20260207604A1, “COMPOUND AND USE THEREOF” (ONQUALITY PHARMACEUTICALS CHINA LTD., priority 2022, published 2026).
Where two headings read alike, the source gives them in different places.

Columns and labels:
[1] = tested on: Human colorectal cancer COLO205 cells; test: Cell apoptosis assay (Caspase-Glo 3/7), 5-FU-induced apoptosis; assay type: cell-based
Protocol: The Caspase-Glo® 3/7 assay was employed to evaluate the protective effect of the compounds of the present invention against 5-fluorouracil (5-FU)-induced apoptosis. Human colorectal cancer COLO205 cells were cultured in RPMI 1640 medium (Invitrogen) in an incubator at 37° C. with 5% CO2.
COLO205 cells were seeded in 96-well plates at a density of 4,000 cells per well and incubated overnight. On the following day, serially diluted concentrations of Compound 1 were added to the wells and incubated for 16 hours. Afterward, 5-FU was added and the cells were incubated for an additional 48 hours. Subsequently, Caspase-Glo® 3/7 reagent (100 μL) was added to each well. The cells were mixed on an orbital shaker for 10 min and incubated at room temperature for 2 h. After an additional 10-minute incubation, the plate was measured using the Envision instrument and the data was processed. Relief rate (%)=(5-FU group−CDK group)/5-FU group×100%.

[2] = Single-dose intravenous and oral pharmacokinetic study in mice; assay type: in vivo, Balb/c mice
Protocol: Twenty-seven male Balb/c mice were randomly divided into 3 groups, 9 mice in each group. Group 1: mice received an intravenous (IV) dose of Compound 1 at 5 mg/kg with a dosing volume of 5 mL/kg. Blood samples were collected at 0.083, 0.25, 0.5, 1, 2, 4, 6, 8, and 24 hours post-dose using a staggered sampling method. Group 2: mice received an oral (gavage) dose of Compound 1 at 50 mg/kg with a dosing volume of 10 mL/kg. Blood samples were collected at 0.25, 0.5, 1, 2, 4, 6, 8, and 24 hours post-dose using a staggered sampling method. Group 3: mice received an oral (gavage) dose of palbociclib at 50 mg/kg with a dosing volume of 10 mL/kg. Blood samples were collected at 1, 3, 4, 6, 8, 10, 12, and 24 hours post-dose using a staggered sampling method. For each group, 3 samples were collected at each time point. Plasma was separated by centrifugation and stored at −70° C. The concentrations of Compound 1 or palbociclib in plasma were measured using LC-MS/MS.

[3] = tested on: Irinotecan-induced diarrhea model; test: Irinotecan-induced diarrhea model; assay type: in vivo, Balb/c mice; details: irinotecan 230 mg/kg once a day, 1 day, mice
Text: Irinotecan-induced diarrhea and/or constipation models were employed as additional in vivo experimental models to evaluate the activity of the compounds of the present application.
Balb/c mice (20-25 g, 7-8 weeks old, Jihui) were acclimated for one week and then randomly assigned to 3 groups (n=10 per group): control group, irinotecan group, and CDK inhibitor group. Control group: received the same vehicle as the CDK inhibitor group by oral gavage, followed by injection of the same vehicle as the irinotecan group; irinotecan group: received the same vehicle by oral gavage as the CDK inhibitor group, followed by injection of irinotecan; CDK inhibitor group: received oral administration of the CDK inhibitor, followed by injection of irinotecan.
In the irinotecan group, approximately 6 to 9 out of 10 mice developed diarrhea. From Day 1 to Day 7, the severity of diarrhea in each mouse was evaluated using the following scoring criteria:
The diarrhea scoring system was based on the method by Akinobu Kurita (Cancer Chemother Pharmacol 2000; 46:211-20), Grade 0: normal stool; Grade 1: mild diarrhea, slightly soft stool and wet stool; Grade 2: moderate diarrhea, loose stool with slight perianal staining; Grade 3: severe diarrhea, loose watery stool with severe perianal staining. Calculate the diarrhea Relief rate of compound treatment. Relief rate (%)=(diarrhea score of irinotecan group−diarrhea score of CDK inhibitor group)/diarrhea score of irinotecan group×100%.

[4] = Intestinal tissue distribution study following a single oral administration in rats; assay type: in vivo, Sprague Dawley rats; details: male rats, single oral 25 mg/kg; for Kp: read-out: Tissue-to-plasma concentration ratio
Protocol: Nine male Sprague Dawley rats were orally administered Compound 1 at a dose of 25 mg/kg with a dosing volume of 10 mL/kg using purified water as the vehicle. At 0.25, 2, and 6 hours post-dosing, three animals were euthanized at each time point. A 200 μL whole blood sample was collected via cardiac puncture and plasma was separated by centrifugation.
The duodenum, jejunum, ileum, and colon were collected, contents removed, rinsed with ice-cold water, and surface moisture was blotted with filter paper before weighing. For each gram of tissue, 5 mL of methanol-water (1:3, v/v) was added for homogenization. The drug concentrations in plasma and intestinal tissue homogenates of each intestinal segment tissue were measured using LC-MS/MS.

[5] = Single-dose intravenous and oral pharmacokinetic study in rats; assay type: in vivo, Sprague-Dawley (SD) rats; details: male SD rats
Protocol: Six male Sprague-Dawley (SD) rats were randomly divided into two groups, with three rats in each group. Compound 1 was administered either by intravenous injection at a dose of 2 mg/kg or by oral gavage at a dose of 10 mg/kg. The dosing volumes were 5 mL/kg for intravenous administration and 10 mL/kg for oral administration, with purified water used as the solvent. For the intravenous group, blood samples were collected at 0.083, 0.25, 0.5, 1, 2, 4, 6, 8, and 24 hours post-dose. For the oral group, blood samples were collected at 0.25, 0.5, 1, 2, 4, 6, 8, and 24 hours post-dose. Plasma samples were prepared by centrifugation and stored at −70° C. The plasma concentration of Compound 1 was determined using LC-MS/MS.

[6] = mouse, male Balb/c mice, IV 5 mg/kg, plasma
[7] = mouse, male Balb/c mice, PO 50 mg/kg, plasma
[8] = 5 mg/kg oral, 4 hours before and 8 hours after irinotecan
[9] = 25 mg/kg oral, 6 hours before and 6 hours after irinotecan
[10] = 50 mg/kg oral, 4 hours before and 8 hours after irinotecan
[11] = 100 mg/kg oral, 6 hours before and 6 hours after irinotecan
[12] = Sprague-Dawley, rat, IV 2 mg/kg, plasma
[13] = 25 mg/kg oral, 4 hours before and 8 hours after irinotecan
[14] = 100 mg/kg oral, 12 hours before irinotecan
[15] = 50 mg/kg oral, 8 hours before irinotecan and 4 hours after irinotecan

## CC(=O)c1c(C)c2c(n(C3CCCC3)c1=O)=NC(Nc1ccc(N3CCN(S(=O)(=O)NCCN)CC3)cn1)NC=2 (stereo not shown) [Compound 1]
[1]; concentration 0.1 μM
  Relief rate of 5-FU -induced cell apoptosis: 30%
[1]; concentration 1 μM
  Relief rate of 5-FU -induced cell apoptosis: 60%
[1]; concentration 5 μM
  Relief rate of 5-FU -induced cell apoptosis: 80%
[1]; concentration 25 μM
  Relief rate of 5-FU -induced cell apoptosis: 40%
[2]; male Balb/c mice, PO 50 mg/kg vs IV 5 mg/kg
  F: 0.6%
[2]; mice, PO 50 mg/kg, in words
  plasma concentration following oral administration compared with palbociclib: significantly lower than that of palbociclib
[2]; [6]
  AUC(0-t): 670 ng·h/mL
  clearance: 119 mL/min/kg
  half-life: 2.69 h
[2]; mouse, male Balb/c mice, IV 5 mg/kg, plasma, read-out: Vdss
  Vd: 11 L/kg
[2]; [7]
  AUC(0-t): 39.2 ng·h/mL
  Cmax: 21 ng/mL
  Tmax: 1 h
[3]; [8]
  diarrhea relief rate: 30%
[3]; 10 mg/kg oral, 6 hours before and 6 hours after irinotecan
  diarrhea relief rate: 33.3%
[3]; [9]
  diarrhea relief rate: 50%
[3]; [10]
  diarrhea relief rate: 37.5%
[3]; 100 mg/kg oral, 4 hours before and 8 hours after irinotecan
  diarrhea relief rate: 30%
[3]; [11]
  diarrhea relief rate: 20%
[4]; Sprague Dawley, rat, Colon, ratio of AUC values
  Kp: 502
[4]; Sprague Dawley, rat, Ileum, ratio of AUC values
  Kp: 4750
[4]; Sprague Dawley, rat, Jejunum, ratio of AUC values
  Kp: 4300
[4]; Sprague Dawley, rat, Plasma, read-out: AUC0-t
  AUC(0-t): 1.26 ng·h/mL
[4]; Colon
  AUC(0-t): 632 ng·h/g
[4]; Duodenum
  AUC(0-t): 19300 ng·h/g
[4]; Duodenum, ratio of AUC values
  Tissue-to-plasma concentration ratio: 15300
[4]; Ileum
  AUC(0-t): 5980 ng·h/g
[4]; Jejunum
  AUC(0-t): 5420 ng·h/g
[5]; [12]
  AUC(0-t): 602 ± 161 ng·h/mL
  clearance: 56.7 ± 17.3 mL/min/kg
  half-life: 5.55 ± 0.503 h
[5]; Sprague-Dawley, rat, IV 2 mg/kg, plasma, read-out: Vdss
  Vd: 9.61 ± 5.43 L/kg
[5]; PO 10 mg/kg, all samples 0.25-24 h, below the lower limit of quantification
  plasma concentrations following oral administration: < 1 ng/mL

## CC(=O)c1c(C)c2cnc(Nc3ccc(N4CCN(S(=O)(=O)NCC(C)N)CC4)cn3)nc2n(C2CCCC2)c1=O (stereo not shown) [Compound 3]
[1]; concentration 0.1 μM
  Relief rate of 5-FU -induced cell apoptosis: 20%
[1]; concentration 1 μM
  Relief rate of 5-FU -induced cell apoptosis: 40%
[1]; concentration 5 μM
  Relief rate of 5-FU -induced cell apoptosis: 40%
[1]; concentration 25 μM
  Relief rate of 5-FU -induced cell apoptosis: 30%
[3]; [8]
  diarrhea relief rate: 25%
[3]; 25 mg/kg oral, 10 hours before and 2 hours after irinotecan
  diarrhea relief rate: 60%
[3]; [10]
  diarrhea relief rate: 70%
[3]; [11]
  diarrhea relief rate: 50%

## CC(=O)c1c(C)c2cnc(Nc3ccc(N4CCN(S(=O)(=O)NCC(C)(C)CN)CC4)cn3)nc2n(C2CCCC2)c1=O [Compound 6]
[1]; concentration 0.1 μM
  Relief rate of 5-FU -induced cell apoptosis: 20%
[1]; concentration 1 μM
  Relief rate of 5-FU -induced cell apoptosis: 40%
[1]; concentration 5 μM
  Relief rate of 5-FU -induced cell apoptosis: 60%
[1]; concentration 25 μM
  Relief rate of 5-FU -induced cell apoptosis: 70%
[3]; 10 mg/kg oral, 4 hours before and 8 hours after irinotecan
  diarrhea relief rate: 50%
[3]; [13]
  diarrhea relief rate: 85%
[3]; [9]
  diarrhea relief rate: 60%
[3]; [14]
  diarrhea relief rate: 40%

## CC(=O)c1c(C)c2cnc(Nc3ccc(N4CCN(S(=O)(=O)NCCCN)CC4)cn3)nc2n(C2CCCC2)c1=O [Compound 4]
[1]; concentration 10 μM
  Relief rate of 5-FU -induced cell apoptosis: 40%
[1]; concentration 25 μM
  Relief rate of 5-FU -induced cell apoptosis: 50%
[1]; concentration 50 μM
  Relief rate of 5-FU -induced cell apoptosis: 50%
[1]; concentration 100 μM
  Relief rate of 5-FU -induced cell apoptosis: 30%
[3]; 25 mg/kg oral, 2 hours before and 10 hours after irinotecan
  diarrhea relief rate: 30%
[3]; [10]
  diarrhea relief rate: 60%
[3]; 50 mg/kg oral, 6 hours before and 6 hours after irinotecan
  diarrhea relief rate: 60%
[3]; 150 mg/kg oral, 10 hours before irinotecan
  diarrhea relief rate: 45%

## CC(=O)c1c(C)c2cnc(Nc3ccc(N4CCN(S(=O)(=O)NCC(C)CN)CC4)cn3)nc2n(C2CCCC2)c1=O (stereo not shown) [Compound 5]
[1]; concentration 0.5 μM
  Relief rate of 5-FU -induced cell apoptosis: 10%
[1]; concentration 5 μM
  Relief rate of 5-FU -induced cell apoptosis: 50%
[1]; concentration 50 μM
  Relief rate of 5-FU -induced cell apoptosis: 40%
[1]; concentration 100 μM
  Relief rate of 5-FU -induced cell apoptosis: 30%
[3]; [8]
  diarrhea relief rate: 25%
[3]; [9]
  diarrhea relief rate: 50%
[3]; [15]
  diarrhea relief rate: 50%
[3]; 100 mg/kg oral, 10 hours before irinotecan and 2 hours after irinotecan
  diarrhea relief rate: 35%

## CC(=O)c1c(C)c2cnc(Nc3ccc(N4CCN(S(=O)(=O)NCC(C)(C)N)CC4)cn3)nc2n(C2CCCC2)c1=O [Compound 2]
[1]; concentration 1 μM
  Relief rate of 5-FU -induced cell apoptosis: 40%
[1]; concentration 5 μM
  Relief rate of 5-FU -induced cell apoptosis: 50%
[1]; concentration 10 μM
  Relief rate of 5-FU -induced cell apoptosis: 70%
[1]; concentration 50 μM
  Relief rate of 5-FU -induced cell apoptosis: 40%
[3]; [13]
  diarrhea relief rate: 70%
[3]; [9]
  diarrhea relief rate: 60%
[3]; [15]
  diarrhea relief rate: 75%
[3]; [14]
  diarrhea relief rate: 50%
